For this test, the target named is T1, Alpha-2C adrenergic receptor (Homo sapiens, UniProt P18825).
T1 sequence (P18825 whole entry): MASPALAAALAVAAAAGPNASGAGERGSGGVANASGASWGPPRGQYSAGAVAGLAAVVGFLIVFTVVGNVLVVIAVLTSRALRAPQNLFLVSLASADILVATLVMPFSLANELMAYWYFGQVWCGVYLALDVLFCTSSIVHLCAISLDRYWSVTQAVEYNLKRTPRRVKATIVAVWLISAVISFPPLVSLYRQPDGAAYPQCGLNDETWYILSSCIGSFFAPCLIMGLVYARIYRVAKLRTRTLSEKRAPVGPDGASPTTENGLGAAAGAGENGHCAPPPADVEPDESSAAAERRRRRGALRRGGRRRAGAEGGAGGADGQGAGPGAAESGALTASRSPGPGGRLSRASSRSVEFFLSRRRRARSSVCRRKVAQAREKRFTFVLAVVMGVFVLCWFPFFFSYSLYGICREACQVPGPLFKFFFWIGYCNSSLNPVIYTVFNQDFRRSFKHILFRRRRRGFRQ
Put plainly: In Vitro Radioligand Binding Assay. Here is the method:
In Vitro Radioligand Binding Studies for Determination of the Dissociation Constants K1 at the Human Adrenoreceptor ADRA2C (Eurofins Panlabs Discovery Services, Taiwan, Ltd)A competition assay based on [3H] rauwolscine as radioliganden was used to determine the binding affinity of the test substances at the human ADRA2C receptor.To configure the competition assay, the equilibrium dissociation constant Kd of the radioligand [3H] rauwolscine was determined in a saturation experiment. To this end, homogenates of CHO-K1 cells recombinantly expressing the human ADRA2C receptor were incubated with increasing concentrations of the radiotracers for 1 h at 4° C. in binding buffer (50 mM Tris-HCl, 1 mM EDTA, pH 7.4). Unspecific binding was determined by addition of an excess of the not radioactively labelled ligand prazosin (10 μM). The radioactivity was determined in a scintiation counter.The competition experiments were carried out in the presence of 0.5 nM [3H] rauwolscine and increasing concentrations of the test substances to be characterized under the conditions described above.

The structures appear in SMILES notation.

In the case of `C[C@@H]1CCCN(C2CCN(c3ncc(C(=O)NCc4cc(C(F)(F)F)ccn4)s3)CC2)C1` [US20240000767, Example 18], the IC50 came to 6.8 µM.
For the compound `C[C@@H]1CCCN(C2CCN(c3nc(Br)c(C(=O)NCc4ncc(F)cc4F)s3)CC2)C1` [US20240000767, Example 119], the IC50 worked out at 0.03 µM.

Values taken from BindingDB's records for patent US20240000767 (Bayer Aktiengesellschaft, 2024).
